Laboratory results taken from patent US6399585B1, “In Utero treatment of CFTR-related deficiencies” (priority 1996, dated 2002).

How the values were obtained:
[1] = system: intracellular calcium stores; assay: Intracellular calcium stores in intestines (Calcium Green, confocal microscopy); type: in vivo, mouse; conditions: cftr−/− mice, in utero ATP-treatment, examined at 65 days old
Protocol: (§1) All tissues were sectioned and washed in phosphate buffered saline. Stock solutions (1 mM) of stains obtained from Molecular Probes were used. Two microliters/ml of either CaGreen-AM. (Molecular Probes) or Rhodamine green-UTP (Molecular Probes) was added to the tissue, then incubated for 1-2 hrs All samples were examined on a Noran Odyssey CLSM with a Nikon Diaphot inverted microscope. The software used for the imaging was Noran's Intervision running on a SGI Indy workstation.
Calcium plays an integral role in secretion. […] Calcium Green™, a flourescent stain for intracellular calcium, was applied to cross-sections of both control and in utero cftr-treated cftr−/− and cftr+/− mice. All samples were examined by confocal microscopy.
Intracellular calcium stores were evaluated after in utero ATP rescue, as previously described.

UTP receptors = UTP receptors in intestines (Rhodamine green-UTP staining); type: in vivo, mouse; conditions: knockout mice, ATP rescue, 65 day old mice
Protocol: as §1
Multiple purinergic receptors and multiple signal transduction pathways are activated in different membrane domains of tracheal epithelia (Hwang, Schwiebert et al. 1996) (Devidas and Guggino 1997). Functional characterization of the P2 purinoceptor superfamily support a diverse functional role for ATP and related nucleotides in the regulation of tissue function (Williams 1996). To examine the possible role of these purinergic receptors, changes in UTP receptors in treated and normal intestines were examined using UTP labeled with fluorescent rhodamine green to stain sections of intestines.
Changes in UTP receptors in ATP-treated intestines were examined using UTP labeled with fluorescent rhodamine green to stain sections of intestines.

cftr deficient mice = assay: Survival of mice after in utero ATP or cftr treatment; type: in vivo, mouse
Protocol: Female heterozygous UNC knockout X C57bl/6 mouse 5th generation backcross mice were mated with either heterozygous and previously rescued homozygous knockout mice. At 15-16 days gestation animals were anesthetized as in Example (II)(C)(2) and the fetuses surgically exposed for injection. Virus (10^9 particles/ml of amniotic fluid) was injected into the amniotic fluid. Normal delivery of the animals was allowed to take place.
Female heterozygous UNC knockout X C57bl/6 mouse 5th generation backcross mice were mated with either heterozygous and previously rescued homozygous knockout mice. At 15-16 days gestation animals were anesthetized as in Example (II)(C)(2) and the fetuses surgically exposed for injection. 20 ul of a 20 mM ATP in sterile physiological saline was injected into the amniotic fluid. Normal delivery of the animals was allowed to take place.

ENaC = target: T1, ENaC (Homo sapiens, UniProt P37088+P51168+P51170); conditions: cited from earlier work
T1 sequence (P37088 1-669): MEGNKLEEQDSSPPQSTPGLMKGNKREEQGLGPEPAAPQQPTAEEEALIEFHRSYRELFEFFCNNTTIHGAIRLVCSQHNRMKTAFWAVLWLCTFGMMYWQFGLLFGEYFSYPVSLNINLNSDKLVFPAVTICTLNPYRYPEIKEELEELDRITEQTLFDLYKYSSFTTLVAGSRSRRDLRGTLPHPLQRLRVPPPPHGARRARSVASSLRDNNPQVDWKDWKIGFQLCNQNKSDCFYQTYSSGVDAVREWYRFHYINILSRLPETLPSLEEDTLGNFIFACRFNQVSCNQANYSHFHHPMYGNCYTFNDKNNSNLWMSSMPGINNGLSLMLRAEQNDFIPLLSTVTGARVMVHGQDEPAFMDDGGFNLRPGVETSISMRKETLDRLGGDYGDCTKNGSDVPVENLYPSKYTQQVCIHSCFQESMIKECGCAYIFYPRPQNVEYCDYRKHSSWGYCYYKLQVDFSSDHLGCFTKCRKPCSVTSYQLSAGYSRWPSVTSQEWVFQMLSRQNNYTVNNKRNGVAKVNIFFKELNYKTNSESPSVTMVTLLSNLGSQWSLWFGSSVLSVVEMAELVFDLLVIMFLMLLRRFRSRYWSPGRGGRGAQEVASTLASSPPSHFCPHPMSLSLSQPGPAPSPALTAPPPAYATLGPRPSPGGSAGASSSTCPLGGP
T1 sequence (P51168 1-640): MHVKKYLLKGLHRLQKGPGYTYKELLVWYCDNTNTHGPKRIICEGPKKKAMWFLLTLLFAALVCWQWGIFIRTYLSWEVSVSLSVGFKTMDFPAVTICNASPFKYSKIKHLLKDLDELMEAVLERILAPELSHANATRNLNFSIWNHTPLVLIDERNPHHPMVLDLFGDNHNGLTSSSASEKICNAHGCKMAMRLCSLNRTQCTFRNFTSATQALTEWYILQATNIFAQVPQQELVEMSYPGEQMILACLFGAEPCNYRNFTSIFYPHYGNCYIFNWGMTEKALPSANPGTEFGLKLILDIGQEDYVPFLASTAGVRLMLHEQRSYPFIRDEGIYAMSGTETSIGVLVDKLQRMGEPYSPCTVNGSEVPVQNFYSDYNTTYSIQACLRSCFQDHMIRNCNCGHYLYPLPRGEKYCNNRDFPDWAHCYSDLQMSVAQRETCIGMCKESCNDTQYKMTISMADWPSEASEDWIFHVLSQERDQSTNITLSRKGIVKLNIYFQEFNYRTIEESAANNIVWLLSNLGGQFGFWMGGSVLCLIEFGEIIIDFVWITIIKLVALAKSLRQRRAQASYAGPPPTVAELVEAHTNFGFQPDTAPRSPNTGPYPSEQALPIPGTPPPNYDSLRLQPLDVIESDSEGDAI
T1 sequence (P51170 1-649): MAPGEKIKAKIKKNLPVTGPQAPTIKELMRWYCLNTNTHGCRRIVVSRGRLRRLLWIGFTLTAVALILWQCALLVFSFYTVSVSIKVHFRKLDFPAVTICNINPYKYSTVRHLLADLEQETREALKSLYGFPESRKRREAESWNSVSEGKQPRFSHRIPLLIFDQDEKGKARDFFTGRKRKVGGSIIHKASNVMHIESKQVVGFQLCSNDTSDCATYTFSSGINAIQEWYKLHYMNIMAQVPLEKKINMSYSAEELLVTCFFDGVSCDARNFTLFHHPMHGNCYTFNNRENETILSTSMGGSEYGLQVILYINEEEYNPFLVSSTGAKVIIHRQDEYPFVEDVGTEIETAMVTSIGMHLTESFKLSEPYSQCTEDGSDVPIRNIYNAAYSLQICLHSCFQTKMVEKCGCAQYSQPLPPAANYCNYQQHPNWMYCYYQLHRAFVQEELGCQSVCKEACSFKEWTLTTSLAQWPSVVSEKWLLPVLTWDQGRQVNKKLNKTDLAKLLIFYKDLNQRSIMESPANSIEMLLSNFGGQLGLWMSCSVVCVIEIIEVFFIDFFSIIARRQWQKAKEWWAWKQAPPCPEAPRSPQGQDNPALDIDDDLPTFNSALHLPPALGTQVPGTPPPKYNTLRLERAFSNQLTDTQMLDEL

non-CFTR Cl- channels = conditions: cited from earlier work
[2] = Table 8, living greater than 60 days

## Nc1ncnc2c1ncn2[C@@H]1O[C@H](COP(=O)(O)OP(=O)(O)OP(=O)(O)O)[C@@H](O)[C@H]1O [ATP, adenosine triphosphate]
[1]
  intracellular Ca2+ stores in intestines: restored intracellular Ca2+ in cells of the crypt
UTP receptors
  UTP receptors in intestines: restored the UTP receptors
Cftr deficient mice; 20 ul of 20 mM ATP into amniotic fluid at 15-16 days gestation
  survival of cftr deficient mice: improved the survival
Cftr deficient mice; [2]
  +/− Survivors, number: 9
  −/− Survivors, number: 3
Cftr deficient mice; Table 8, living greater than 60 days, treated at 15-16 days gestation
  +/+ Survivors, number: 4
Cftr deficient mice; Table 8, share of survivors
  +/+ Survivors (%): 25%
  +/− Survivors (%): 56%
  −/− Survivors (%): 19%
Cftr deficient mice; regardless of genotype
  toxicity inferred from genotype distribution of survivors: non-toxic

## N=C(N)NC(=O)c1nc(Cl)c(N)nc1N [Amiloride]
ENaC
  ENaC conduction: block conduction

## O=c1ccn([C@@H]2O[C@H](COP(=O)(O)OP(=O)(O)OP(=O)(O)O)[C@@H](O)[C@H]2O)c(=O)[nH]1 [UTP, uridine triphosphate]
non-CFTR Cl- channels; aerosolized, CF airway epithelia
  Cl- (and liquid) secretion: induces Cl- (and liquid) secretion
non-CFTR Cl- channels; aerosolized, pilot studies in normal subjects
  mucociliary clearance: effective stimulator of mucociliary clearance
non-CFTR Cl- channels; short-term aerosolized, normal subjects and patients with CF
  tolerability: well tolerated

## Nc1nc(N)c2nc(-c3ccccc3)c(N)nc2n1 [triamterene]
ENaC
  ENaC conduction: block conduction
